Source: patent US6670382B2, “Hydroxyformamidine derivatives and medicines containing the same” (Taisho Pharmaceutical Co., Ltd., priority 2000, dated 2003)

Tests used:
[1] = test system: 20-HETE synthase derived from rat kidney microsome; test: Inhibitory effect of 20-HETE synthase derived from rat kidney microsome; assay type: biochemical; settings: SHR rat kidney microsome; for Inhibition (1 µM): inhibition rate of 20-HETE production, subject compound 1 μM, 3H-arachidonic acid, NADPH, 1.5 hours at 37° C., pH 7.4; for IC50: concentration at which 20-HETE production was inhibited to 50%
Method: [Inhibitory Effect of 20-HETE Synthase Derived from Rat Kidney Microsome]
Regarding the compounds listed in the Table described above, their inhibitory activities on production of 20-HETE were examined.
This examination was carried out based on the method described in J. Pharmacol. Exp. Ther., Vol. 268, p. 474 (1994).
The subject compound in an amount of 1 μM was added to a 50 mM of 3-morpholinopropanesulfonic acid buffer (MOPS) (pH 7.4), containing 5 mM of magnesium chloride, and 1 mM of ethylenediaminetetraacetic acid (EDTA) disodium salt.
Subsequently, the rat kidney microsome fraction prepared from the kidney of a spontaneously hypertensive rat (male, 6 weeks of age) as an enzyme, [5,6,8,9,11,12,14,15] tritium-arachidonic acid (supplied by Amasham) as a substrate, and NADPH (supplied by Sigma) as a coenzyme were added, and were reacted for 1.5 hours at 37° C.
After the reaction was quenched by adding formic acid (supplied by Wako Pure Chemical Industries Ltd.) to the reaction solution, acetonitrile (final concentration of 50%) was added thereto, and the mixture was allowed to stand for 1.5 hours at room temperature. The amount of 20-HETE production was measured by using a high performance liquid chromatography having a detector for radioactive substances (supplied by Gilson), equipped with an ODS column (Biocyl C18, supplied by Bio-rad).
Setting an amount of 20-HETE production to 100% when no subject compound was added, the inhibition rate (%) was calculated from the amount of 20-HETE production when a subject compound was added.
In addition, setting an amount of 20-HETE production to 100% when no subject compound was added, the concentration of the subject compound at which the production of the 20-HETE was inhibited to 50% when the subject compound is added (IC50 value) was also calculated.

melting point | IC50 [1] [nM] | SMILES | Inhibition (1 µM) [1] [%]
 |  | CCN(CC)CCOc1ccc(N/C=N/O)cn1 [Comp. 16] | 60.0
 |  | O/N=C/Nc1ccc(OCc2ccc(-c3ccccc3)cc2)nc1 [Comp. 84] | 105.3
 |  | COC(=O)CCSc1ccc(N/C=N/O)cn1 [Comp. 116] | 93.1
138 to 140 °C | 1.9 | O/N=C/Nc1ccc(OCCc2ccsc2)nc1 [Comp. 99] | 95.4
 |  | CC(C)CCSc1ccc(N/C=N/O)cn1 [Comp. 106] | 77.5
 |  | Cc1cccc(COc2ccc(N/C=N/O)cn2)n1 [Comp. 41] | 83.0
 |  | CC(=O)OCCOc1ccc(N/C=N/O)cn1 [Comp. 62] | 112.8
174.5 to 175 °C | 435 | CC(C)(C)Sc1ccc(N/C=N/O)cn1 [Comp. 117] | 69.3
113 to 114.5 °C | 13.1 | CCCCOCCOc1ccc(N/C=N/O)cn1 [Comp. 61] | 99.8
 |  | CC(C)=CCCC(C)CCOc1ccc(N/C=N/O)cn1 (stereo not drawn) [Comp. 70] | 108.1
153.5 to 155.5 °C |  | O/N=C/Nc1ccc(OCc2ccccn2)nc1 [Comp. 6, N-[2-(pyridin-2-ylmethoxy)pyridin-5-yl]-N′-hydroxyformamidine] | 
143.5 to 144.5 °C | 400 | C#CCOc1ccc(N/C=N/O)cn1 [Comp. 121] | 99.8
141 to 142 °C | 18.2 | CC(C)Sc1ccc(N/C=N/O)cn1 [Comp. 102] | 74.5
 | 4.3 | O/N=C/Nc1ccc(OCCn2cccc2)nc1 [Comp. 90] | 105.7
 |  | CCCCSc1ccc(N/C=N/O)cn1 [Comp. 105] | 100.5
 | 2.1 | O/N=C/Nc1ccc(OCCC2CCCCC2)nc1 [Comp. 22] | 108.0
 |  | O/N=C/Nc1ccc(OCc2cccc(Oc3ccccc3)c2)nc1 [Comp. 76] | 100.2
 |  | O/N=C/Nc1ccc(SCc2ccc(Cl)cc2)nc1 [Comp. 100] | 79.5
122 °C (dec.) |  | CCN(CC)CCCC(C)Oc1ccc(N/C=N/O)cn1 (stereo not drawn) [Comp. 130] | 
 |  | O/N=C/Nc1ccc(OCC2CC2)nc1 [Comp. 21] | 73.0
140 to 141 °C | 6.4 | O/N=C/Nc1ccc(OCCCn2cccc2)nc1 [Comp. 91] | 103.0

melting point | IC50 [1] [nM] | SMILES | Inhibition (1 µM) [1] [%]
 |  | Cc1cccc(COc2ccc(N/C=N/O)cn2)c1 [Comp. 79] | 100.6
 |  | CCCCCCCOc1ccc(N/C=N/O)cn1 [Comp. 43] | 89.5
 |  | CC(C)OCCOc1ccc(N/C=N/O)cn1 [Comp. 19] | 104.0
 |  | COC(=O)COc1ccc(N/C=N/O)cn1 [Comp. 86] | 82.6
 |  | CCCCCCCCCSc1ccc(N/C=N/O)cn1 [Comp. 115] | 89.0
 |  | CC(C)=CCC/C(C)=C\COc1ccc(N/C=N/O)cn1 [Comp. 51] | 111.0
 | 9.3 | O/N=C/Nc1ccc(OCc2cccs2)nc1 [Comp. 15] | 100.0
 |  | CCOC(=O)CCSc1ccc(N/C=N/O)cn1 [Comp. 118] | 100.7
 | 49.6 | O/N=C/Nc1ccc(OCc2ccco2)nc1 [Comp. 3] | 102.0
 |  | CC(C)=CCOc1ccc(N/C=N/O)cn1 [Comp. 18] | 86.0
 |  | CC(C)=CCC/C(C)=C/COc1ccc(N/C=N/O)cn1 [Comp. 52] | 108.7
 |  | CCOC(=O)CCCCCOc1ccc(N/C=N/O)cn1 [Comp. 68] | 102.6
 |  | O/N=C/Nc1ccc(OCCCCc2ccccc2)nc1 [Comp. 71] | 99.0
 |  | O/N=C/Nc1ccc(OCc2ccc(Cl)cc2Cl)nc1 [Comp. 74] | 69.3
 |  | O/N=C/Nc1ccc(OCCCCC2CCCCC2)nc1 [Comp. 29] | 101.0
 | 2.7 | O/N=C/Nc1ccc(OCCCOc2ccccc2)nc1 [Comp. 36] | 104.0
 | 2.7 | O/N=C/Nc1ccc(OCC2CCCCC2)nc1 [Comp. 11] | 89.0
 |  | O/N=C/Nc1ccc(OCC2CCCCCC2)nc1 [Comp. 57] | 114.2
 | 2.1 | Cc1ncsc1CCOc1ccc(N/C=N/O)cn1 [Comp. 17] | 100.0
 |  | COc1ccc(CCCOc2ccc(N/C=N/O)cn2)cc1OC [Comp. 63] | 102.3
 | 3.4 | O/N=C/Nc1ccc(OCCCc2ccncc2)nc1 [Comp. 37] | 96.0

melting point | IC50 [1] [nM] | SMILES | Inhibition (1 µM) [1] [%]
 |  | C#CCCOc1ccc(N/C=N/O)cn1 [Comp. 20] | 31.0
 | 9.6 | O/N=C/Nc1ccc(OCCSc2ccccn2)nc1 [Comp. 25] | 71.0
 |  | O/N=C/Nc1ccc(OCC2CC3CCC2C3)nc1 (stereo not drawn) [Comp. 35] | 98.0
 |  | Cn1c(=O)c2c(ncn2CCOc2ccc(N/C=N/O)cn2)n(C)c1=O [Comp. 88] | 71.8
 |  | CCC(C)CCOc1ccc(N/C=N/O)cn1 (stereo not drawn) [Comp. 48] | 102.8
 |  | CCOC(=O)CSc1ccc(N/C=N/O)cn1 [Comp. 103] | 79.9
 | 624 | CCN(CC)CCOCCOc1ccc(N/C=N/O)cn1 [Comp. 122] | 99.6
 |  | CC(C)CCCOc1ccc(N/C=N/O)cn1 [Comp. 49] | 107.1
 |  | CCCCCCCCOc1ccc(N/C=N/O)cn1 [Comp. 44] | 100.7
 |  | CCCCCSc1ccc(N/C=N/O)cn1 [Comp. 112] | 101.5
 | 9.9 | CCSCCOc1ccc(N/C=N/O)cn1 [Comp. 28] | 105.0
 | 24 | CC1(C)OCC(COc2ccc(N/C=N/O)cn2)O1 (stereo not drawn) [Comp. 13] | 101.0
 |  | CCCCCCOc1ccc(N/C=N/O)cn1 [Comp. 42] | 105.8
 |  | COc1ccc(CCCOc2ccc(N/C=N/O)cn2)cc1 [Comp. 64] | 100.7
 |  | O/N=C/Nc1ccc(OCc2ccoc2)nc1 [Comp. 40] | 86.0
 |  | O/N=C/Nc1ccc(SC2CCCCC2)nc1 [Comp. 101] | 91.8
 |  | CC(C)(C)CCOc1ccc(N/C=N/O)cn1 [Comp. 30] | 102.0
 |  | O/N=C/Nc1ccc(OCCCCCc2ccccc2)nc1 [Comp. 50] | 108.2
 | 27.2 | O/N=C/Nc1ccc(OCC2CCC2)nc1 [Comp. 26] | 99.0
 | 7.6 | CC1(C)COC(CCOc2ccc(N/C=N/O)cn2)OC1 [Comp. 34] | 89.0
 | 87.2 | COCCOCCOc1ccc(N/C=N/O)cn1 [Comp. 12] | 99.0

melting point | IC50 [1] [nM] | SMILES | Inhibition (1 µM) [1] [%]
 |  | CCCCCCCSc1ccc(N/C=N/O)cn1 [Comp. 114] | 85.1
105 to 106 °C |  | CN(C)CCOc1ccc(N/C=N/O)cn1 [Comp. 131] | 
 |  | O/N=C/Nc1ccc(OCc2ccccc2CCc2ccccc2)nc1 [Comp. 75] | 88.5
 | 2.1 | O/N=C/Nc1ccc(OCCCc2cccnc2)nc1 [Comp. 33] | 93.0
 |  | O/N=C/Nc1ccc(OCCc2ccc(Br)cc2)nc1 [Comp. 67] | 108.6
 |  | O/N=C/Nc1ccc(OCCSc2ccccc2)nc1 [Comp. 95] | 96.5
 | 8.5 | O/N=C/Nc1ccc(OCc2ccsc2)nc1 [Comp. 38] | 95.0
153.5 to 154.5 °C |  | CN(C)CCSc1ccc(N/C=N/O)cn1 [Comp. 126] | 
 |  | C/C=C/C=C/COc1ccc(N/C=N/O)cn1 [Comp. 58] | 106.6
 |  | Cc1ccc(CCOc2ccc(N/C=N/O)cn2)cc1 [Comp. 60] | 109.9
 |  | CCCCCCSc1ccc(N/C=N/O)cn1 [Comp. 113] | 81.3
 |  | COC(=O)c1ccc(COc2ccc(N/C=N/O)cn2)cc1 [Comp. 83] | 98.8
 |  | COC(=O)CSc1ccc(N/C=N/O)cn1 [Comp. 108] | 89.7
 |  | CC(C)(C)COc1ccc(N/C=N/O)cn1 [Comp. 39] | 62.0
 | 3.9 | O/N=C/Nc1ccc(OCc2ccncc2)nc1 [Comp. 23] | 104.0
 | 1.5 | O/N=C/Nc1ccc(OCCCc2ccccc2)nc1 [Comp. 14] | 104.0
109 to 111 °C |  | CCN(CC)CCC(Oc1ccc(N/C=N/O)cn1)C(F)(F)F (stereo not drawn) [Comp. 129] | 
 |  | O/N=C/Nc1ccc(OCCOC2CCCCC2)nc1 [Comp. 27] | 71.0
 |  | CCN(CCOc1ccc(N/C=N/O)cn1)c1cccc(C)c1 [Comp. 85] | 100.8
91 to 93 °C |  | CC(C)(COc1ccc(N/C=N/O)cn1)CN1CCCCC1 [Comp. 134] | 
